{
  "source": "patent US7070978B2",
  "about": "“Method for expressing and purifying proteins using budded baculovirus” (Toudai TLO, Ltd., priority 2001, dated 2006)",
  "target": "S1P (Homo sapiens, UniProt Q14703)",
  "sequence (Q14703 187-1052)": "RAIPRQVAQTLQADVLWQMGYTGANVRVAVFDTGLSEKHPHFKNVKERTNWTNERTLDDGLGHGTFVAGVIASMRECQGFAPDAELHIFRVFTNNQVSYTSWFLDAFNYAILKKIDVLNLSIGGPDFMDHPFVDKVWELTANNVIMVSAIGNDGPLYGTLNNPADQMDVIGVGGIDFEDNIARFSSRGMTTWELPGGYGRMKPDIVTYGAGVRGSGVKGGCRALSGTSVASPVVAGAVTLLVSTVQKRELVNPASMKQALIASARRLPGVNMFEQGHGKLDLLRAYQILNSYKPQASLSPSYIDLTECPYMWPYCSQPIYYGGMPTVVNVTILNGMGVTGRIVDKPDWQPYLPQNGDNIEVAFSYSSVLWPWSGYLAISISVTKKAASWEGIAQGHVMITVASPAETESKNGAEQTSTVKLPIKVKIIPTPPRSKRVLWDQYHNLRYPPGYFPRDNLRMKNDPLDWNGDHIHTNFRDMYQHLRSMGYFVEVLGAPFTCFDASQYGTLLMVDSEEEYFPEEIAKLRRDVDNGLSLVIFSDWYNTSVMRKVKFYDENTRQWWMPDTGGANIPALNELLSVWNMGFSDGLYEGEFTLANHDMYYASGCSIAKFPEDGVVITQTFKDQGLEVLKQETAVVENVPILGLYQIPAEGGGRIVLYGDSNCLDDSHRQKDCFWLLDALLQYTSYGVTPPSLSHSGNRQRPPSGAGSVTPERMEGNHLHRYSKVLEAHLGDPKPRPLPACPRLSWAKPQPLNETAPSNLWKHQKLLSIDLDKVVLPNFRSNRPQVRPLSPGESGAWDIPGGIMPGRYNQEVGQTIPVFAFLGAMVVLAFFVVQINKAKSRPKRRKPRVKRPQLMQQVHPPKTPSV",
  "conditions": "10 mM EDTA; SREBP2-BV + S1P-BV, 5 mM calcium, 37° C. for 12 hours, Western blot with anti-serum R004",
  "experimental": "Sf9 cells were infected with recombinant viruses of S1P or SREBP at MOI 5. 72 hours later, the BV fraction was recovered by centrifugation as in Examples 1 and 2, and then suspended in TBS buffer (10 mM Tris, 150 mM NaCl, pH7.5). BV suspended in TBS was subjected to a protein determination with a protein determination kit (Bio-Rad). Reaction solutions of SREBP2-BV as a substrate and S1P-BV as an enzyme were prepared to have respective final concentrations of 10 μg per reaction solution. In addition, calcium ions required for activation of S1P were added to the reaction solution at a concentration, as calcium acetate, which enables to measure activity. Calcium, EDTA (pH7.4) and EGTA (pH7.4) were added to BV solution, and then added with TBS buffer (pH7.4) to a reaction volume of 20 μl, followed by incubation at 37° C. for 12 hours. Following reaction, the solution was subjected to heat treatment with 5×SDS sample buffer at 95° C. for 10 minutes, subjected to 8% SDS-PAGE and Western blot using rabbit anti-serum R004 against the amino terminal of SREBP2.\nBV expressing SREBP or S1P was mixed, incubated at 37° C. for 12 hours, and then allowed to react in the presence of 5 mM calcium.",
  "data": [
    {"smiles": "O=C(O)CN(CCN(CC(=O)O)CC(=O)O)CC(=O)O", "note": "[EDTA]", "values": [
      {"measurement": "inhibition of degradation (cleavage) of SREBP2 by S1P", "value": "completely inhibited"}
    ]}
  ]
}
